Here are results for two molecules from patent US11523986B2, “Intranasally administered antihistamines and uses thereof” (priority 2019, dated 2022).

The nature of one data set: in vitro. The following applies: human, DPBS pH 7.4, 120 min, 37° C., diphenhydramine 100 μM, atenolol 100 μM, caffeine 50 μM co-dosed.
The test system of another data set is EpiAirway tissues. The following applies: EpiAirway tissues after 120 min, 100 μM.
Another data set deals with rhinovirus colds. The following applies: intranasal, phosphate buffer vehicle, patients; Gaffney et al. 1987; cited from earlier work.

Experimental for EpiAirway tissues: (§1) EpiAirway™ tissues, plated in 24-well plates, and accompanying culture medium and assay buffer solutions, were purchased from MatTek Corporation (Ashland, Mass.). According to the EpiAirway™ AIR-100 Use Protocol provided by MatTek, the tissues were returned to culture immediately upon receipt. In a tissue culture hood, using sterile technique, 1.0 mL of cold medium (AIR-100-ASY) was dispensed into each well of the 6-well plate (n=3) and one tissue insert was transferred to each of the wells. The apical surface of the tissue was exposed to the air (no medium was added to the insert). The tissues were equilibrated overnight at 37° C. in a 5% CO2 incubator. The culture medium was then replaced with fresh, pre-warmed medium until use.
(§2) The unidirectional permeation experiment was conducted according to protocol 18APCIP2 and relevant SOPs of Absorption Systems. Prior to the permeability assay, the culture medium in the plate was aspirated; and ˜1 mL of Dulbecco's phosphate-buffered saline (DPBS) was added to the well to remove any remaining residue of culture medium from the underside of the insert. The tissues were transferred to a 24-well plate with DPBS (750 μL) in each well as receiver, and dosing solution (400 μL) was added to each insert. A 100 μL aliquot was immediately removed as the 0-minute donor sample. Receiver samples (200 μL) were collected at 30, 60, and 120 minutes, replaced with an equal volume of fresh pre-warmed blank buffer at 30 and 60 minutes. The donor side was sampled (100 μL) at 0 and 120 minutes. The assay plate was placed in a humidified CO2 incubator at 37° C. during the assay period.
(§3) After 120 minutes, the tissues were rinsed with DPBS and gently dried with tissue wipes after aspiration of the assay buffer. The insert membranes with tissues attached were carefully removed from the insert apparatus, placed in a tared centrifuge tube, and weighed.
(§4) The apparent permeability coefficient (Papp) and recovery were calculated as follows: Papp=(dCr/dt)×Vr/(A×Cini) (1) Recovery (%)=[((Cr,final×Vr)+(Cd,final×Vd))/(Cini×Vd)]×100 (2) Recovery (%)=[((Cr,final×Vr)+(Cd,final×Vd)+(Tissue Accumulation))/(Cini×Vd)]×100 (3)
(§5) where, • dCr/dt is the slope of cumulative receiver concentration vs. time in μM s^−1; • Vr is the volume of the receiver compartment; • Vd is the volume of the donor compartment; • A is the diffusional area of the membrane; • Cini is the donor concentration at 0 minutes in μM; • CD, final is the donor concentration at 120 minutes in μM; • Cr, final is the receiver concentration at 120 minutes in μM.
(§6) With DPBS, pH 7.4 used on both the donor and receiver sides, permeability was initiated with addition of 0.4 mL of dosing solution into the inserts and of 0.75 mL of blank buffer into the wells of the assay plate. The assay was performed for 120 minutes in a humidified incubator at 37° C.
Experimental for in vitro: as §1, §2, §3, §4, §5, §6

Usually Papp A→B stands for how fast a substance crosses the layer from the apical side. With `Cn1c(=O)c2c(ncn2C)n(C)c1=O` [Caffeine, caffeine], the apical-to-basolateral permeability (Papp A→B) at 120 min in the data set “in vitro” (pH 7.4, Papp (10^−6 cm/s) Average ± SD, apical dosing, average) came to 29.1 ×10⁻⁶ cm/s; in the data set “in vitro” (pH 7.4, Papp (10^−6 cm/s) R1, apical dosing, replicate R1), 30.9 ×10⁻⁶ cm/s; in the data set “in vitro” (pH 7.4, Papp (10^−6 cm/s) R2, apical dosing, replicate R2), 28.2 ×10⁻⁶ cm/s; in the data set “in vitro” (pH 7.4, Papp (10^−6 cm/s) R3, apical dosing, replicate R3), 28.2 ×10⁻⁶ cm/s.
With `CN(C)CCOC(c1ccccc1)c1ccccc1` [Diphenhydramine, diphenhydramine], the “Tissue Accumulation (nmol/mg) Average ± SD” value in the data set on EpiAirway tissues (average) stood at 0.212 ± 0.0222 nmol/mg. For the same molecule, the “Tissue Accumulation (nmol/mg) R1” value with EpiAirway tissues (replicate R1) worked out at 0.188 nmol/mg. Besides, the “Tissue Accumulation (nmol/mg) R3” value in the data set with EpiAirway tissues (replicate R3) is 0.218 nmol/mg. Moreover, in the data set on rhinovirus colds, the “therapeutic effect in reducing signs and symptoms of rhinovirus colds” value is on record as “no therapeutic effect”.
